Data reported in patent US6582734B1, “Antimicrobial composition useful for the treatment of bovine mastitis” (Ecolab Inc., priority 2000, dated 2003).

Columns and labels:
[1] = system: Escherichia coli (ATCC 11229); experiment: Antimicrobial effect of ClO2 compositions with/without heptanoic acid, E. coli; assay type: cell-based; settings: no secondary antimicrobial fatty acid added
Procedure: (§1) This experiment was used to determine what affect the addition of a fatty acid, the secondary antimicrobial agent, had on the effectiveness of the compositions in killing E. Coli and S. Aureus. The secondary fatty acid used was heptanoic acid at a level of 1% in examples 1, 2 and 3. The comparative examples, A, B and C, contained no fatty acid.
(§2) Three compositions were prepared from each base solution. Sodium chlorite was added in amounts that were sufficient to form compositions having 200 ppm, 300 ppm and 400 ppm ClO2. Six compositions were prepared in all.
(§3) The compositions were then tested for the antimicrobial effect against Staphylococcus aureus and Escherichia coli. The inoculum numbers in CFU/mL were 1.1×10^7 (ATCC 6538) and 1.0×10^8 (ATCC 11229). The test temperature was 25° C. and the solution pH was 5.5. The following Table II illustrates the results obtained.

[2] = system: Staphylococcus aureus (ATCC 6538); experiment: Antimicrobial effect of ClO2 compositions with/without heptanoic acid, S. aureus; assay type: cell-based; settings: no secondary antimicrobial fatty acid added
Procedure: as §1, §2, §3

E. coli = experiment: Effect of various acids on antimicrobial activity of the base solution (no chlorine dioxide), E. coli; assay type: cell-based, Escherichia coli; settings: used alone at 1%
Procedure: (§4) The effect of various acids on the antimicrobial activity of the base solution was measured. No chlorine dioxide was added to the compositions. Acids were added to each sample at a concentration of 1%. Example 4 had 1% heptanoic acid and Comparative Example D had 1% lactic acid. Examples 5 and 6 utilized blends of acids. The antimicrobial activity of each was measured and compared in the following Table III.

S. aureus = experiment: Effect of various acids on antimicrobial activity of the base solution (no chlorine dioxide), S. aureus; assay type: cell-based, Staphylococcus aureus; settings: used alone at 1%
Procedure: as §4

| Compound | concentration level of chlorine dioxide that provided an effective antimicrobial kill of E. Coli [1] [ppm] | concentration level of chlorine dioxide that provided an effective antimicrobial kill of S. Aureus [2] [ppm] | effect against the microbes (E. coli), in words (E. coli) | effect against the microbes (S. aureus), in words (S. aureus) |
| --- | --- | --- | --- | --- |
| [O][Cl+][O-] [chlorine dioxide] | 300 | 300 | – | – |
| CC(O)C(=O)O (stereo not shown) [lactic acid] | – | – | does not have much of any effect | does not have much of any effect |
